This test addresses T1, P2X4 receptor (Homo sapiens, UniProt Q99571).
T1 construct: expressed in transfected cells; host or cells: 1321N1 astrocytoma cells, retroviral vector pQCXIN, G418 selection, monoclones
T1 sequence (Q99571 1-388): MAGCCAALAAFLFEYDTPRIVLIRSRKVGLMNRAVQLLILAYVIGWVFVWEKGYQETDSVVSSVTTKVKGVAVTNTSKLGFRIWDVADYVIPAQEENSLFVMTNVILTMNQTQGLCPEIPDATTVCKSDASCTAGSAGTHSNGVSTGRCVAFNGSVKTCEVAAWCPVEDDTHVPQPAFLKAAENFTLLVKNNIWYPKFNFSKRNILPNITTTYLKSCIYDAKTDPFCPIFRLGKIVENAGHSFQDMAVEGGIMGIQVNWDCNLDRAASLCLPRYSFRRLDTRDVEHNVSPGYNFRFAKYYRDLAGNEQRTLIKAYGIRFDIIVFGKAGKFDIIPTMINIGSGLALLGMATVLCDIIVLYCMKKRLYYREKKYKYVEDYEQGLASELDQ
As to the kind of experiment: Measurement of Ca2+ influx in transfected 1321N1 astrocytoma cells (P2X4 inhibitory potency). It counts as cell-based. To be noted: agonist-mediated Ca2+ influx, FLUO-4, 1321N1 astrocytoma cells; antagonists added 30 min before agonist. The method in brief:
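Stable 1321N1 astrocytoma cells expressing human P2X4, loaded with FLUO-4 AM (2.4 μM) in HBSS/HEPES pH 7.3 for 1 h at 23 °C. Antagonists added 30 min before agonist; fluorescence at 520 nm recorded for 30 s. Compounds tested at 7–8 concentrations spanning three log units.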

pIC50: −log10 of the molar value. Where only a bound is given, the exact number is not on record here.

As for `Cc1nsc(-c2ccc(C)c(NCC(=O)N3CCc4c3cccc4C(C)(F)CO)c2)n1` (stereo not drawn) [Example 63, 1-(4-(2-fluoro-1-hydroxypropan-2-yl)indolin-1-yl)-2-((2-methyl-5-(3-methyl-1,2,4-thiadiazol-5-yl)phenyl)amino)ethan-1-one], the pIC50 (in general, the negative decadic logarithm of the IC50, by convention in mol/L) was 7.72 to 10.00.

Regarding `Cc1nsc(-c2ccc(C)c(NCC(=O)N3CCc4c3cccc4[C@@](C)(O)CO)c2)n1` [Example 64, 1-(4-(1,2-dihydroxypropan-2-yl)indolin-1-yl)-2-((2-methyl-5-(3-methyl-1,2,4-thiadiazol-5-yl)phenyl)amino)ethan-1-one], the pIC50 was 7.72 to 10.00.

Molecule `Cc1nsc(-c2ccc(C)c(NCC(=O)N3CCc4c3cccc4[C@](C)(O)CO)c2)n1` [Example 65, 1-(4-(1,2-dihydroxypropan-2-yl)indolin-1-yl)-2-((2-methyl-5-(3-methyl-1,2,4-thiadiazol-5-yl)phenyl)amino)ethan-1-one] showed a pIC50 of 7.72 to 10.00.

`CCc1nsc(-c2ccc(C)c(NCC(=O)N3CCc4c(N5CC(O)C5)cccc43)c2)n1` [Example 66, 2-((5-(3-ethyl-1,2,4-thiadiazol-5-yl)-2-methylphenyl)amino)-1-(4-(3-hydroxyazetidin-1-yl)indolin-1-yl)ethan-1-one] gave a pIC50 of 7.41 to 7.70.

In turn, `Cc1nsc(-c2ccc(C)c(NCC(=O)N3CCc4c3cccc4C(C)(C)OC(=O)C(O)CO)c2)n1` (stereo not drawn) [Example 67, 2-(1-((2-methyl-5-(3-methyl-1,2,4-thiadiazol-5-yl)phenyl)glycyl)indolin-4-yl)propan-2-yl 2,3-dihydroxy-propanoate] gave a pIC50 of 7.41 to 7.70.

For the molecule `Cc1nsc(-c2ccc(C)c(NCC(=O)N3CCc4c(N5CCC(O)C5)cccc43)c2)n1` (stereo not drawn) [Example 68, 1-(4-(3-hydroxypyrrolidin-1-yl)indolin-1-yl)-2-((2-methyl-5-(3-methyl-1,2,4-thiadiazol-5-yl)phenyl)amino)ethan-1-one], the pIC50 was 7.41 to 7.70.

Turning to `Cc1nsc(-c2ccc(C)c(NCC(=O)N3CCc4c(CS(C)(=N)=O)cccc43)c2)n1` (stereo not drawn) [Example 69, imino(methyl)((1-((2-methyl-5-(3-methyl-1,2,4-thiadiazol-5-yl)phenyl)glycyl)indolin-4-yl)methyl)sulfanone], the negative-log IC50 (pIC50) is less than 7.00.

Turning to `Cc1nsc(-c2ccc(C)c(NCC(=O)N3CCc4c(-c5cc[nH]n5)cccc43)c2)n1` [Example 70, 1-(4-(1H-pyrazol-3-yl)indolin-1-yl)-2-((2-methyl-5-(3-methyl-1,2,4-thiadiazol-5-yl)phenyl)amino)ethan-1-one], the pIC50 is 7.72 to 10.00.

`CCc1nsc(-c2ccc(F)c(NCC(=O)N3CCc4c(N5CCC(O)C5)cccc43)c2)n1` (stereo not drawn) [Example 71, 2-((5-(3-ethyl-1,2,4-thiadiazol-5-yl)-2-fluorophenyl)amino)-1-(4-(3-hydroxypyrrolidin-1-yl)indolin-1-yl)ethan-1-one]: the pIC50 was 7.72 to 10.00.

Take `CCc1nsc(-c2ccc(C)c(NCC(=O)N3CCc4c(N5CCNCC5)cccc43)c2)n1` [Example 72, 2-((5-(3-ethyl-1,2,4-thiadiazol-5-yl)-2-methylphenyl)amino)-1-(4-(piperazin-1-yl)indolin-1-yl)ethan-1-one]: the pIC50 is 7.41 to 7.70.

`Cc1ccc(-c2ccc(C)c(NCC(=O)N3CCc4c(-c5c[nH]cn5)cccc43)c2)o1` [Example 73, 1-(4-(1H-imidazol-4-yl)indolin-1-yl)-2-((2-methyl-5-(5-methylfuran-2-yl)phenyl)amino)ethan-1-one] had a pIC50 of 7.16 to 7.40.

For the molecule `Cc1nsc(-c2ccc(C)c(NCC(=O)N3CCc4c(N)cccc43)c2)n1` [Example 74, 1-(4-aminoindolin-1-yl)-2-((2-methyl-5-(3-methyl-1,2,4-thiadiazol-5-yl)phenyl)amino)ethan-1-one], the pIC50 is 7.41 to 7.70.

`Cc1noc(-c2ccc(F)c(NCC(=O)N3CCc4c(N)cccc43)c2)n1` [Example 75, 1-(4-aminoindolin-1-yl)-2-((2-fluoro-5-(3-methyl-1,2,4-oxadiazol-5-yl)phenyl)-amino)ethan-1-one] showed a pIC50 of 7.00 to 7.15.

`CC(=O)Nc1cccc2c1CCN2C(=O)CNc1cc(-c2nc(C)ns2)ccc1C` [Example 76, N-(1-((2-methyl-5-(3-methyl-1,2,4-thiadiazol-5-yl)phenyl)-glycyl)indolin-4-yl) acetamide] showed a pIC50 of 7.72 to 10.00.

`CC(=O)N(c1cccc2c1CCN2C(=O)CNc1cc(-c2nc(C)ns2)ccc1C)S(C)(=O)=O` [Example 77, N-(1-((2-methyl-5-(3-methyl-1,2,4-thiadiazol-5-yl)phenyl)-glycyl)indolin-4-yl)-N-(methylsulfonyl)acetamide]: the pIC50 was 7.41 to 7.70.

`Cc1nsc(-c2ccc(C)c(NCC(=O)N3CCc4c3cccc4N(S(C)(=O)=O)S(C)(=O)=O)c2)n1` [Example 78, N-(1-((2-methyl-5-(3-methyl-1,2,4-thiadiazol-5-yl)phenyl)glycyl)indolin-4-yl)-N-(methylsulfonyl) methanesulfonamide] gave a pIC50 of 7.72 to 10.00.

In turn, `Cc1nsc(-c2ccc(C)c(NCC(=O)N3CCc4c3cccc4N3C(=O)C=CC3=O)c2)n1` [Example 79, 1-(1-((2-methyl-5-(3-methyl-1,2,4-thiadiazol-5-yl)phenyl)-glycyl)indolin-4-yl)-1H-pyrrole-2,5-dione] had a pIC50 of 7.72 to 10.00.

The molecule `Cc1nsc(-c2ccc(C)c(NCC(=O)N3CCc4c3cccc4N3C(=O)CC(N)C3=O)c2)n1` (stereo not drawn) [Example 80, 3-amino-1-(1-((2-methyl-5-(3-methyl-1,2,4-thiadiazol-5-yl)phenyl)glycyl)indolin-4-yl) pyrrolidine-2,5-dione] showed a pIC50 of 7.72 to 10.00.

The molecule `Cc1nsc(-c2ccc(C)c(NCC(=O)N3CCc4c(NC(=O)[C@H]5CCCN5)cccc43)c2)n1` [Example 81, (R)-N-(1-((2-methyl-5-(3-methyl-1,2,4-thiadiazol-5-yl)phenyl)glycyl)indolin-4-yl) pyrrolidine-2-carboxamide] showed a pIC50 of 7.72 to 10.00.

On to `Cc1nsc(-c2ccc(C)c(NCC(=O)N3CCc4c(NC(=O)[C@H](O)[C@@H](O)C(=O)O)cccc43)c2)n1` [Example 82, (2R,3R)-2,3-dihydroxy-4-((1-((2-methyl-5-(3-methyl-1,2,4-thiadiazol-5-yl)phenyl)-glycyl)indolin-4-yl)amino)-4-oxobutanoic acid], for which the pIC50 is 7.00 to 7.15.

On to `Cc1noc(-c2ccc(C)c(NCC(=O)N3CCc4c3cccc4N3C(=O)CNC3=O)c2)n1` [Example 83, 3-(1-((2-methyl-5-(3-methyl-1,2,4-oxadiazol-5-yl)phenyl)glycyl)indolin-4-yl)imidazolidine-2,4-dione], for which the pIC50 was 7.41 to 7.70.

In turn, `CCc1nsc(-c2ccc(C)c(NCC(=O)N3CCc4c(O)cccc43)c2)n1` [Example 84, 2-((5-(3-ethyl-1,2,4-thiadiazol-5-yl)-2-methylphenyl)amino)-1-(4-hydroxyindolin-1-yl) ethan-1-one] showed a negative-log IC50 (pIC50) of 7.72 to 10.00.

With `Cc1nsc(-c2ccc(C)c(NCC(=O)N3CCc4c(O)cccc43)c2)n1` [Example 85, 1-(4-hydroxyindolin-1-yl)-2-((2-methyl-5-(3-methyl-1,2,4-thiadiazol-5-yl)phenyl)-amino)ethan-1-one], the pIC50 was 7.72 to 10.00.

Take `Cc1noc(-c2ccc(C)c(NCC(=O)N3CCc4c(O)cccc43)c2)n1` [Example 86, 1-(4-hydroxyindolin-1-yl)-2-((2-methyl-5-(3-methyl-1,2,4-oxadiazol-5-yl)phenyl)amino)-ethan-1-one]: the pIC50 is 7.16 to 7.40.

The molecule `CCc1nsc(-c2ccc(C)c(NCC(=O)N3CCc4c(OC(F)(F)C(=O)O)cccc43)c2)n1` [Example 87, 2-((1-((5-(3-ethyl-1,2,4-thiadiazol-5-yl)-2-methyl-phenyl)glycyl)indolin-4-yl)oxy)-2,2-difluoro-acetic acid] had a pIC50 of 7.16 to 7.40.

With `Cc1nsc(-c2ccc(C)c(NCC(=O)N3CCc4c(C(N)C(F)(F)F)cccc43)c2)n1` (stereo not drawn) [Example 88, 1-(4-(1-amino-2,2,2-trifluoroethyl)indolin-1-yl)-2-((2-methyl-5-(3-methyl-1,2,4-thiadiazol-5-yl)phenyl)-amino)ethan-1-one], the pIC50 is 7.16 to 7.40.

`Cc1noc(-c2ccc(C)c(NCC(=O)N3CCc4c(C(N)C(F)(F)F)cccc43)c2)n1` (stereo not drawn) [Example 89, 1-(4-(1-amino-2,2,2-trifluoroethyl)indolin-1-yl)-2-((2-methyl-5-(3-methyl-1,2,4-oxadiazol-5-yl)phenyl)-amino)ethan-1-one] showed a pIC50 of 7.00 to 7.15.

Take `Cc1nsc(-c2ccc(C)c(NCC(=O)N3CCc4c3ccnc4C(C)(C)O)c2)n1` [Example 90, 1-(4-(2-Hydroxypropan-2-yl)-2,3-dihydro-1H-pyrrolo[3,2-c]pyridin-1-yl)-2-((2-methyl-5-(3-methyl-1,2,4-thiadiazol-5-yl)phenyl)amino)ethan-1-one]: the pIC50 is less than 7.00.

`Cc1nsc(-c2ccc(C)c(NCC(=O)N3CCc4c3cncc4C(C)(C)O)c2)n1` [Example 91, 1-(4-(2-Hydroxypropan-2-yl)-2,3-dihydro-1H-pyrrolo[2,3-c]pyridin-1-yl)-2-((2-methyl-5-(3-methyl-1,2,4-thiadiazol-5-yl)phenyl)amino)ethan-1-one] had a pIC50 of less than 7.00.

The molecule `Cc1nsc(-c2ccc(C)c(NCC(=O)N3CCc4c3ccnc4C(C)O)c2)n1` (stereo not drawn) [Example 92, 1-(4-(1-hydroxyethyl)-2,3-dihydro-1H-pyrrolo[3,2-c]pyridin-1-yl)-2-((2-methyl-5-(3-methyl-1,2,4-thiadiazol-5-yl)phenyl)amino)ethan-1-one] had a pIC50 of less than 7.00.

These data come from US20260209215A1, “GLYCINE DERIVATIVES WITH P2X4 RECEPTOR-BLOCKING ACTIVITY AS DIAGNOSTICS AND FOR THE TREATMENT OF PAIN, INFLAMMATION, CANCER, AND OTHER P2X4 RECEPTOR-RELATED DISEASES” (RHEINISCHE-FRIEDRICH-WILHELMS-UNIVERSITÄT BONN, priority 2022, published 2026).
